Values after ≈ are worked out from the molar mass of the structure shown. Structures can show the parent of a compound that is named as a salt.
Columns and labels:
Assay type in all cases: cell-based
Staph. aureus Smith = experiment: Antibacterial activity (MIC), Staph. aureus Smith; conditions: Staphylococcus aureus, read-out: MIC (minimum effective inhibitory concentration)
Description: (§1) Antibacterial activities (minimum effective inhibitory concentrations) of the compounds of formula I are shown in the following table in comparison with those of cefatazidime having the structure [drawing 5] and cefmenoxime having the structure [drawing 6]

Staph. aureus Terashima = experiment: Antibacterial activity (MIC), Staph. aureus Terashima; conditions: Staphylococcus aureus, read-out: MIC (minimum effective inhibitory concentration)
Description: as §1

E. coli Ebara = experiment: Antibacterial activity (MIC), E. coli Ebara; conditions: Escherichia coli; E. coli Ebara; read-out: MIC (minimum effective inhibitory concentration)
Description: as §1

[1] = tested on: Kleb. pneumoniae ATCC 10031; experiment: Antibacterial activity (MIC), Kleb. pneumoniae ATCC 10031; conditions: Klebsiella pneumoniae, ATCC10031, read-out: MIC (minimum effective inhibitory concentration)
Description: as §1

Serr. marcescens IID 620 = experiment: Antibacterial activity (MIC), Serr. marcescens IID 620; conditions: Serratia marcescens, IID620; Serr. marcescens IID 620; read-out: MIC (minimum effective inhibitory concentration)
Description: as §1

Staph. aureus ATCC 6538P = experiment: Antibacterial activity (MIC), Staph. aureus ATCC 6538P; conditions: Staphylococcus aureus, ATCC6538P, read-out: MIC (minimum effective inhibitory concentration)
Description: as §1

[2] = tested on: Ps. aeruginosa NCTC 10490; experiment: Antibacterial activity (MIC), Ps. aeruginosa NCTC 10490; conditions: Pseudomonas aeruginosa, NCTC10490, read-out: MIC (minimum effective inhibitory concentration)
Description: as §1

Ent. cloacae V-8 = experiment: Antibacterial activity (MIC), Ent. cloacae V-8; conditions: Enterobacter cloacae, V8, read-out: MIC (minimum effective inhibitory concentration)
Description: as §1

Ps. aeruginosa IID 5142 = experiment: Antibacterial activity (MIC), Ps. aeruginosa IID 5142; conditions: Pseudomonas aeruginosa, IID5142, read-out: MIC (minimum effective inhibitory concentration)
Description: as §1

Proteus morgani IID 602 = experiment: Antibacterial activity (MIC), Proteus morgani IID 602; conditions: Proteus morgani IID 602; read-out: MIC (minimum effective inhibitory concentration)
Description: as §1

[3] = tested on: Ent. aerogenes ATCC 13048 (MS-1); experiment: Antibacterial activity (MIC), Ent. aerogenes ATCC 13048 (MS-1); conditions: Klebsiella aerogenes, ATCC13048, read-out: MIC (minimum effective inhibitory concentration)
Description: as §1

MIC (Staph. aureus Smith) [mg/L]	MIC (Staph. aureus Terashima) [mg/L]	MIC (E. coli Ebara) [mg/L]	MIC [1] [mg/L]	MIC (Serr. marcescens IID 620) [mg/L]	MIC (Staph. aureus ATCC 6538P) [mg/L]	MIC [2] [mg/L]	MIC (Ent. cloacae V-8) [mg/L]	MIC (Ps. aeruginosa IID 5142) [mg/L]	MIC (Proteus morgani IID 602) [mg/L]	MIC [3] [mg/L]	Structure (SMILES)
6.25	12.5	12.5	0.39	0.39	6.25	1.56	6.25	25	1.56	3.13	Nc1nc(CO/N=C(\C(=O)NC2C(=O)N3C(C(=O)[O-])=C(C[n+]4cccc(S(=O)(=O)O)c4)CSC23)c2csc(N)n2)cs1 (stereo not drawn) [Example 17, (Z)-7-{α-(2-amino-4-thiazolyl)-α-[(2-amino-4-thiazolyl)methoxyimino]acetamido}-3-(3-sulfonate-1-pyridiniomethyl)-3-cephem-4-carboxylate mono-sodium salt]
0.78 (≈ 1.27 µM)	1.56 (≈ 2.53 µM)	0.78 (≈ 1.27 µM)	≤ 0.2	0.39 (≈ 0.633 µM)	0.78 (≈ 1.27 µM)	0.39 (≈ 0.633 µM)	3.13 (≈ 5.08 µM)	6.25 (≈ 10.2 µM)	0.78 (≈ 1.27 µM)	1.56 (≈ 2.53 µM)	Nc1nc(CO/N=C(\C(=O)NC2C(=O)N3C(C(=O)[O-])=C(C[n+]4cccc(NC=O)c4)CS[C@H]23)c2csc(N)n2)cs1 (stereo partly drawn) [Example 18, (Z)-7-{α-(2-amino-4-thiazolyl)-α-[(2-amino-4-thiazolyl)methoxyimino]acetamido}-3-(3-formamido-1-pyridiniomethyl)-3-cephem-4-carboxylate]
0.78 (≈ 1.33 µM)	0.78 (≈ 1.33 µM)	0.39 (≈ 0.664 µM)	≤ 0.2	≤ 0.2	0.78 (≈ 1.33 µM)	0.78 (≈ 1.33 µM)	3.13 (≈ 5.33 µM)	6.25 (≈ 10.6 µM)	0.78 (≈ 1.33 µM)	1.56 (≈ 2.65 µM)	Nc1ccc[n+](CC2=C(C(=O)[O-])N3C(=O)C(NC(=O)/C(=N\OCc4csc(N)n4)c4csc(N)n4)[C@H]3SC2)c1 (stereo partly drawn) [Example 19, (Z)-7-{α-(2-amino-4-thiazolyl)-α-[(2-amino-4-thiazolyl)methoxyimino]acetamido}-3-(3-amino-1-pyridiniomethyl)-3-cephem-4-carboxylate]
6.25	12.5	6.25	0.39	≤ 0.2	6.25	1.56	12.5	25	1.56	3.13	Nc1nc(CO/N=C(\C(=O)NC2C(=O)N3C(C(=O)[O-])=C(C[n+]4cccc(C(=O)NCC(=O)O)c4)CSC23)c2csc(N)n2)cs1 (stereo not drawn) [Example 20, (Z)-7-{α-(2-amino-4-thiazolyl)-α-[(2-amino-4-thiazolyl)methoxyimino]acetamido}-3-{3-[N-(carboxylatemethyl)carbamoyl]-1-pyridiniomethyl}-3-cephem-4-carboxylate mono-sodium salt]
0.39 (≈ 0.664 µM)	0.39 (≈ 0.664 µM)	≤ 0.2	≤ 0.2	≤ 0.2	0.39 (≈ 0.664 µM)	0.39 (≈ 0.664 µM)	1.56 (≈ 2.65 µM)	6.25 (≈ 10.6 µM)	0.39 (≈ 0.664 µM)	0.78 (≈ 1.33 µM)	Nc1cc[n+](CC2=C(C(=O)[O-])N3C(=O)C(NC(=O)/C(=N\OCc4csc(N)n4)c4csc(N)n4)[C@H]3SC2)cc1 (stereo partly drawn) [Example 21, 7-{α-(2-amino-4-thiazolyl)-α-[(2-amino-4-thiazolyl)methoxyimino]acetamido}-3-(4-amino-1-pyridiniomethyl)-3-cephem-4-carboxylate]
1.56 (≈ 2.48 µM)	3.13 (≈ 4.97 µM)	1.56 (≈ 2.48 µM)	≤ 0.2	0.78 (≈ 1.24 µM)	1.56 (≈ 2.48 µM)	1.56 (≈ 2.48 µM)	6.25 (≈ 9.93 µM)	12.5 (≈ 19.9 µM)	1.56 (≈ 2.48 µM)	3.13 (≈ 4.97 µM)	Nc1nc(CO/N=C(\C(=O)NC2C(=O)N3C(C(=O)[O-])=C(C[n+]4cccc(CNC=O)c4)CS[C@H]23)c2csc(N)n2)cs1 (stereo partly drawn) [Example 22, (Z)-7-{α-(2-amino-4-thiazolyl)-α-[(2-amino-4-thiazolyl)methoxyimino]acetamido}-3-(3-formamidomethyl-1-pyridiniomethyl)-3-cephem-4-carboxylate]
6.25 (≈ 9.89 µM)	3.13 (≈ 4.96 µM)	0.39 (≈ 0.617 µM)	≤ 0.2	0.39 (≈ 0.617 µM)	3.13 (≈ 4.96 µM)	0.39 (≈ 0.617 µM)	3.13 (≈ 4.96 µM)	6.25 (≈ 9.89 µM)	0.78 (≈ 1.23 µM)	1.56 (≈ 2.47 µM)	Nc1nc(CON=C(C(=O)NC2C(=O)N3C(C(=O)[O-])=C(C[n+]4ccc(C(=O)NO)cc4)CS[C@H]23)c2csc(N)n2)cs1 (stereo partly drawn) [Example 23, (Z)-7-{α-(2-amino-4-thiazolyl)-α-[(2-amino-4-thiazolyl)methoxyimino]acetamido}-3-(4-hydroxycarbamoyl-1-pyridiniomethyl)-3-cephem-4-carboxylate]

— US4608373A, “Cephem compounds” (Yamanouchi Pharmaceutical Co., Ltd., priority 1982, dated 1986)
